Holding throughout (assay type): cell-based
The target in experiment [1] is T1, human TLR7 (Homo sapiens, UniProt Q9NYK1).
T1 construct: host or cells: HEK-Blue cells
T1 sequence (Q9NYK1 27-1049): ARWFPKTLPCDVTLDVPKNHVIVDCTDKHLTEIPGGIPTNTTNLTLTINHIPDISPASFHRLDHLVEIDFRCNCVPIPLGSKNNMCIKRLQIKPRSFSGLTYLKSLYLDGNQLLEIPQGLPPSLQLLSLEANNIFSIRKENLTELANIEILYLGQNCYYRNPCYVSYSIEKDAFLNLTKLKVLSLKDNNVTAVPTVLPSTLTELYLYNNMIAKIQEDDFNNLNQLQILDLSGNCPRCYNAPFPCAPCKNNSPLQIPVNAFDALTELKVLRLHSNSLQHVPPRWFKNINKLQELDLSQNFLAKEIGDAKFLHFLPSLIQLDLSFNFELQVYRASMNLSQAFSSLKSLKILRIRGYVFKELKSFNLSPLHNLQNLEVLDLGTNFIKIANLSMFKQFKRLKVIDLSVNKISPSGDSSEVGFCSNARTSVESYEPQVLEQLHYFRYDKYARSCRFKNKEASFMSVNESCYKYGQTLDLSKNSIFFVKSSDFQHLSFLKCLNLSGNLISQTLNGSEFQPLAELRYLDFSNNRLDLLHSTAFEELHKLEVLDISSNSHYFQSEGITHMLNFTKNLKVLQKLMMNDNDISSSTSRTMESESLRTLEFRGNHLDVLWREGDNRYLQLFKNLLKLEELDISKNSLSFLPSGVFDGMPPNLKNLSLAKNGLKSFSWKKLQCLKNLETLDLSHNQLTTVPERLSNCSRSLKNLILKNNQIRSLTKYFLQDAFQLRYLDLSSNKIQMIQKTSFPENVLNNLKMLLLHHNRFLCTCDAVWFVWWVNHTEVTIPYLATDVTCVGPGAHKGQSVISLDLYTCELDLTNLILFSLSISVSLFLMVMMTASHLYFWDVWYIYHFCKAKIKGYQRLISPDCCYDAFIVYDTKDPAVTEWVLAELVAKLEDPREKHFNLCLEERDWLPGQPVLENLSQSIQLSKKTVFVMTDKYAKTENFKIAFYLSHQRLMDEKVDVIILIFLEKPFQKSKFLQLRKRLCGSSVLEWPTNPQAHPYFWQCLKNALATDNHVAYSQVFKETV
Description: TLR7 inhibition reporter assay (HEK-Blue cells, SEAP reporter). As to conditions: HEK-Blue cells overexpressing human TLR7; stimulated with gardiquimod 7.5 μM; SEAP read after 22 hour; dose range 0.05 nM-50 μM. An outline of the steps: (§1)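 HEK-Blue cells with NF-κB/AP-1-driven SEAP pre-treated 30 min with compounds (0.05 nM-50 μM), then stimulated with gardiquimod 7.5 μM (TLR7), R848 15.9 μM (TLR8) or ODN2006 5 nM (TLR9). SEAP read after 22 h at 37° C; % inhibition relative to agonist+DMSO and reference-inhibitor wells.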
On the technique in general: Reporter assays use an easily measured gene product as a stand-in for the process of interest.

For experiment [2], the target named is T2, human TLR9 (Homo sapiens, UniProt Q9NR96).
T2 construct: host or cells: HEK-Blue cells
T2 sequence (Q9NR96 26-1032): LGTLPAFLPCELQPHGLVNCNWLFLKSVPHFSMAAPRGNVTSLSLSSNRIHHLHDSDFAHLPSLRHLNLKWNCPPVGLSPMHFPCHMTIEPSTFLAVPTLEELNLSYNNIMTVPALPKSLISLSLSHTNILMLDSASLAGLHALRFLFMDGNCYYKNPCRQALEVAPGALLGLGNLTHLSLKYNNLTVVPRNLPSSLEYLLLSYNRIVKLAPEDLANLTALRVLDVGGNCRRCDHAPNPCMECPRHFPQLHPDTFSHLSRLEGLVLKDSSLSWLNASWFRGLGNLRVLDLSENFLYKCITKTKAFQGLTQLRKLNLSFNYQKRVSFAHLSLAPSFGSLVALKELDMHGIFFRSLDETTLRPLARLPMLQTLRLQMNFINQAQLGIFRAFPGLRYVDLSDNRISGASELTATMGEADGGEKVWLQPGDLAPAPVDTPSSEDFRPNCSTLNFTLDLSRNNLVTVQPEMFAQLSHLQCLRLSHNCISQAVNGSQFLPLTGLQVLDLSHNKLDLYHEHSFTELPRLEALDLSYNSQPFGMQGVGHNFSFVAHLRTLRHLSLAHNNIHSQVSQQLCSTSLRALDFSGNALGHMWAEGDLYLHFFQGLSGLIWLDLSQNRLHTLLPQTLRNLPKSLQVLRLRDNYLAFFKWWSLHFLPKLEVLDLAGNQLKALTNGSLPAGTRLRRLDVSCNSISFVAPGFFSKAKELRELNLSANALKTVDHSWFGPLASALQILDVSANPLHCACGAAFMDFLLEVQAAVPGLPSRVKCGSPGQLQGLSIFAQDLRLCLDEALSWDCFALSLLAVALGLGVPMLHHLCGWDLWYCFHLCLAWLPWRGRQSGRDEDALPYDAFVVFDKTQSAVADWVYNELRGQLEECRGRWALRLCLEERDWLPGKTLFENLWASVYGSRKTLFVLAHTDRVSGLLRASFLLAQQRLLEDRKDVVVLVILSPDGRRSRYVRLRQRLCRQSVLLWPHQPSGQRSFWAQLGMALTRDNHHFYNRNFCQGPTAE
Description: TLR9 inhibition reporter assay (HEK-Blue cells, SEAP reporter). The following applies: HEK-Blue cells overexpressing human TLR9; stimulated with ODN2006 5 nM; SEAP read after 22 hour; dose range 0.05 nM-50 μM. In short, it runs like this: as §1

Experiment [3] deals with T3, human TLR8 (Homo sapiens, UniProt Q9NR97).
T3 construct: host or cells: HEK-Blue cells
T3 sequence (Q9NR97 27-1041): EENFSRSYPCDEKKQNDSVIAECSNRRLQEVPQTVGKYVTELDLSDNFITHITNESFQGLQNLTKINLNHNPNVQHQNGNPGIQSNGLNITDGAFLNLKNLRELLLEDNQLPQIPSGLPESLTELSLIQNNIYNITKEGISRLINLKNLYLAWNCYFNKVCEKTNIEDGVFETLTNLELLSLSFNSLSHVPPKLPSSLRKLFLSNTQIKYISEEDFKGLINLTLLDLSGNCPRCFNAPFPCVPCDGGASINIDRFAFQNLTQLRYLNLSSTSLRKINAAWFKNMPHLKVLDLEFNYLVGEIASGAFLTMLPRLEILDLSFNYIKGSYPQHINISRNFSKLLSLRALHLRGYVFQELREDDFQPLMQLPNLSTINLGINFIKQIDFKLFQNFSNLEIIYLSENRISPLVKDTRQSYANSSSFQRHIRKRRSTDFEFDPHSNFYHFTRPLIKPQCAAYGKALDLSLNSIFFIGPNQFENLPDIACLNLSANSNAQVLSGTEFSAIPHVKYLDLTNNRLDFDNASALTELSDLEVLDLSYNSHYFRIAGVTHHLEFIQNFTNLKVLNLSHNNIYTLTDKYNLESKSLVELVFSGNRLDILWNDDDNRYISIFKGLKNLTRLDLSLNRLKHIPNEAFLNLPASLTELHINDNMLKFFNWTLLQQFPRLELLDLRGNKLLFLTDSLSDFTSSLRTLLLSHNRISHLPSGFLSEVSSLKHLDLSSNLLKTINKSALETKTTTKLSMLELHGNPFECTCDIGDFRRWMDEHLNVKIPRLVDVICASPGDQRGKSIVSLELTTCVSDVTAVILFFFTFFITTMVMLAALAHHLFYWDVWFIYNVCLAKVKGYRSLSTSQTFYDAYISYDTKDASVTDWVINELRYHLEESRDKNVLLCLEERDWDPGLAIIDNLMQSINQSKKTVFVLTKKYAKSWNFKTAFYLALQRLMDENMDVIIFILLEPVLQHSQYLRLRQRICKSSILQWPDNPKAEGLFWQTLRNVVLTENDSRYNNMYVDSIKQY
The experiment is described as follows: TLR8 inhibition reporter assay (HEK-Blue cells, SEAP reporter). As to conditions: HEK-Blue cells overexpressing human TLR8; stimulated with R848 15.9 μM; SEAP read after 22 hour; dose range 0.05 nM-50 μM. In short, it runs like this:
as §1

The text below walks through data of patent publication US20260183275A1, “SUBSTITUTED QUINOLONE COMPOUNDS USEFUL AS INHIBITORS OF TLR9” (Bristol-Myers Squibb Company, priority 2022, published 2026).

In general, IC50 refers to the concentration needed to halve the response being measured. In the case of `CCCn1c(=O)c(-c2ccc(S(C)(=O)=O)cc2)cc2cc(-c3ccc(C4CCN(C(C)C)CC4)cc3)ccc21` [Example 80, 3-(4-methanesulfonylphenyl)-6-{4-[1-(propan-2-yl)piperidin-4-yl]phenyl}-1-propyl-1,2-dihydroquinolin-2-one], the figures for the IC50 in experiment [1], in experiment [2] and in experiment [3] were 8380 nM, 298 nM and 15100 nM, respectively.
For the molecule `CCc1c(-c2ccc(S(C)(=O)=O)cc2)c(=O)n(C)c2ccc(-c3ccc(C4CCN(C5COC5)CC4)cc3)cc12` [Example 101, 4-ethyl-3-(4-methanesulfonylphenyl)-1-methyl-6-{4-[1-(oxetan-3-yl)piperidin-4-yl]phenyl}-1,2-dihydroquinolin-2-one], the IC50 was at least 50000 nM in experiment [1], 2370 nM in experiment [2] and 1340 nM in experiment [3].
For the molecule `CC(C)N1CCN(c2ccc(-c3ccc4c(c3)cc(-c3ccc(N(C)S(C)(=O)=O)cc3)c(=O)n4C)cc2)CC1` [Example 23, N-methyl-N-[4-(1-methyl-2-oxo-6-{4-[4-(propan-2-yl)piperazin-1-yl]phenyl}-1,2-dihydroquinolin-3-yl)phenyl]methanesulfonamide], the results for the IC50 in experiment [1], in experiment [2] and in experiment [3] were 5510 nM, 221 nM and 36000 nM, respectively.
On the same counts, the results for `CC(C)N1CCC(c2ccc(-c3ccc4[nH]c(=O)c(-c5cccc(C#N)c5)cc4c3)cc2)CC1` [Example 69, 3-(2-oxo-6-{4-[1-(propan-2-yl)piperidin-4-yl]phenyl}-1,2-dihydroquinolin-3-yl)benzonitrile] are 538 nM, 75 nM and 17600 nM.
For the molecule `CC(C)N1CCN(c2ccc(-c3ccc4[nH]c(=O)c(-c5ccc(F)cc5)cc4c3)cc2)CC1` [Example 31, 3-(4-fluorophenyl)-6-{4-[1-(propan-2-yl)piperazin-1-yl]phenyl}-1,2-dihydroquinolin-2-one], the values for the IC50 in experiment [1], in experiment [2] and in experiment [3] were 42600 nM, 286 nM and 16700 nM, respectively.
As to `CC(C)N1CCN(c2ccc(-c3ccc4[nH]c(=O)c(-c5c(Cl)cccc5Cl)cc4c3)cc2)CC1` [Example 37], the IC50 in experiment [1] was 5560 nM; in experiment [2], 367 nM; in experiment [3] it was at least 50000 nM.
On the same counts, the results for `CC(C)N1CCN(c2ccc(-c3ccc4[nH]c(=O)c(-c5cccc(F)c5F)cc4c3)cc2)CC1` [Example 24, 3-(2,3-difluorophenyl)-6-{4-[4-(propan-2-yl)piperazin-1-yl]phenyl}-1,2-dihydroquinolin-2-one] are 2000 nM, 224 nM and 15200 nM.
In the same order, the values of `CC(C)N1CCN(c2ccc(-c3ccc4[nH]c(=O)c(-c5ccc(OC(F)F)cc5)cc4c3)cc2)CC1` [Example 36, 3-[4-(difluoromethoxy)phenyl]-6-{4-[4-(propan-2-yl)piperazin-1-yl]phenyl}-1,2-dihydroquinolin-2-one] are at least 50000 nM, 344 nM and at least 50000 nM.
On the same counts, the results for `CC(C)N1CCC(c2ccc(-c3ccc4[nH]c(=O)c(-c5cccc(NS(C)(=O)=O)c5)cc4c3)cc2)CC1` [Example 67, N-[3-(2-oxo-6-{4-[1-(propan-2-yl)piperidin-4-yl]phenyl}-1,2-dihydroquinolin-3-yl)phenyl]methanesulfonamide] are 817 nM, 67 nM and at least 50000 nM.
With `CC(C)N1CCC(c2ccc(-c3ccc4[nH]c(=O)c(-c5ccc(S(N)(=O)=O)cc5)cc4c3)cc2)CC1` [Example 65, 4-(2-oxo-6-{4-[1-(propan-2-yl)piperidin-4-yl]phenyl}-1,2-dihydroquinolin-3-yl)benzene-1-sulfonamide], the IC50 in experiment [1] worked out at 342 nM; in experiment [2], 55 nM; in experiment [3], 4870 nM.
Take `CC(C)N1CCN(c2ccc(-c3ccc4[nH]c(=O)c(-c5ccc(C(N)=O)cc5)cc4c3)cc2)CC1` [Example 53, 4-(2-oxo-6-{4-[4-(propan-2-yl)piperazin-1-yl]phenyl}-1,2-dihydroquinolin-3-yl)benzamide]: the results for the IC50 in experiment [1], in experiment [2] and in experiment [3] were 4520 nM, 257 nM and 1240 nM, respectively.
On the same counts, the results for `CCn1c(=O)c(-c2ccc(S(C)(=O)=O)cc2)cc2cc(-c3ccc(C4CCN(C(C)C)CC4)cc3)ccc21` [Example 79, 1-ethyl-3-(4-methanesulfonylphenyl)-6-{4-[1-(propan-2-yl)piperidin-4-yl]phenyl}-1,2-dihydroquinolin-2-one] are 5330 nM, 287 nM and 25800 nM.
On the same counts, the results for `CCc1c(-c2ccc(S(C)(=O)=O)cc2)c(=O)n(C)c2ccc(-c3ccc(N4CCN(C(C)C)CC4)cc3)cc12` [Example 77, 4-ethyl-3-(4-methanesulfonylphenyl)-1-methyl-6-{4-[4-(propan-2-yl)piperazin-1-yl]phenyl}-1,2-dihydroquinolin-2-one] are 10200 nM, 267 nM and 361 nM.
